In patent publication US10743540B2, “3-amino-1,2,4-triazine derivatives and their use for controlling undesired plant growth” (BAYER CROPSCIENCE AKTIENGESELLSCHAFT, priority 2016, dated 2020):

Legend:
Format in all cases: in vivo
[1] = test system: ALOMY: Alopecurus myosuroides; experiment: Pre-emergence herbicidal effect; details: application rate 320 g/ha, scored visually after 3 weeks, 100% = plants have died, 0% = like control plants
Text: (§1) 1. Pre-Emergence Herbicidal Effect and Crop Plant Compatibility Seeds of monocotyledonous and dicotyledonous weed plants and crop plants are laid out in sandy loam soil in wood-fiber pots and covered with soil. The compounds of the invention, formulated in the form of wettable powders (WP) or as emulsion concentrates (EC), are then applied to the surface of the covering soil as aqueous suspension or emulsion at a water application rate equating to 600 to 800 L/ha with addition of 0.2% wetting agent. After the treatment, the pots are placed in a greenhouse and kept under good growth conditions for the trial plants. The damage to the test plants is scored visually after a test period of 3 weeks by comparison with untreated controls (herbicidal activity in percent (%): 100% activity=the plants have died, 0% activity=like control plants). [table]

[2] = test system: ECHCG: Echinochloa crus-galli; experiment: Pre-emergence herbicidal effect; details: application rate 320 g/ha, scored visually after 3 weeks, 100% = plants have died, 0% = like control plants
Text: as §1

[3] = test system: LOLMU: Lolium multiflorum; experiment: Pre-emergence herbicidal effect; details: application rate 320 g/ha, scored visually after 3 weeks, 100% = plants have died, 0% = like control plants
Text: as §1

[4] = test system: MATIN: Matricaria inodora; experiment: Pre-emergence herbicidal effect; details: application rate 320 g/ha, scored visually after 3 weeks, 100% = plants have died, 0% = like control plants
Text: as §1

[5] = test system: POLCO: Polygonum convolvulus; experiment: Pre-emergence herbicidal effect; details: application rate 320 g/ha, scored visually after 3 weeks, 100% = plants have died, 0% = like control plants
Text: as §1

SETVI: Setaria viridis = experiment: Pre-emergence herbicidal effect; details: application rate 320 g/ha, scored visually after 3 weeks, 100% = plants have died, 0% = like control plants
Text: as §1

STEME: Stellaria media [6] = experiment: Pre-emergence herbicidal effect; details: application rate 320 g/ha, scored visually after 3 weeks, 100% = plants have died, 0% = like control plants
Text: as §1

VERPE: Veronica persica [7] = experiment: Pre-emergence herbicidal effect; details: application rate 320 g/ha, scored visually after 3 weeks, 100% = plants have died, 0% = like control plants
Text: as §1

[8] = test system: AMARE: Amaranthus retroflexus; experiment: Post-emergence herbicidal effect; details: application rate 320 g/ha, treated at one-leaf stage, assessed visually after about 3 weeks, 100% = plants have died
Method: (§2) [table] 2. Post-Emergence Herbicidal Effect and Crop Plant Compatibility Seeds of monocotyledonous and dicotyledonous weed and crop plants are laid out in sandy loam soil in wood-fiber pots, covered with soil and cultivated in a greenhouse under good growth conditions. 2 to 3 weeks after sowing, the test plants are treated at the one-leaf stage. The compounds of the invention, formulated in the form of wettable powders (WP) or as emulsion concentrates (EC), are then sprayed onto the green parts of the plants as aqueous suspension or emulsion at a water application rate equating to 600 to 800 L/ha with addition of 0.2% wetting agent. After the test plants have been left to stand in the greenhouse under optimal growth conditions for about 3 weeks, the action of the preparations is assessed visually in comparison to untreated controls (herbicidal action in percent (%): 100% activity=the plants have died, 0% activity=like control plants).

STEME: Stellaria media [9] = experiment: Post-emergence herbicidal effect; details: application rate 320 g/ha, treated at one-leaf stage, assessed visually after about 3 weeks, 100% = plants have died
Method: as §2

VERPE: Veronica persica [10] = experiment: Post-emergence herbicidal effect; details: application rate 320 g/ha, treated at one-leaf stage, assessed visually after about 3 weeks, 100% = plants have died
Method: as §2

VIOTR: Viola tricolor = experiment: Post-emergence herbicidal effect; details: application rate 320 g/ha, treated at one-leaf stage, assessed visually after about 3 weeks, 100% = plants have died
Method: as §2

[11] = test system: ABUTH: Abutilon theophrasti; experiment: Pre-emergence herbicidal effect; details: application rate 320 g/ha, scored visually after 3 weeks, 100% = plants have died, 0% = like control plants
Text: as §1

`Nc1nc(N[C@@H]2CCCc3ccccc32)nnc1Cl` [Example 1.4] was tested, and the “Herbicidal activity with respect to [%] ALOMY” value (“Herbicidal activity … [%] ALOMY” for short) [1] was 100%, the “Herbicidal activity with respect to [%] ECHCG” value (“Herbicidal activity … [%] ECHCG” for short) [2] was 100% and the “Herbicidal activity with respect to [%] LOLMU” value (from here on “Herbicidal activity … [%] LOLMU”) [3] was 100%. The “Herbicidal activity with respect to [%] MATIN” value (“Herbicidal activity … [%] MATIN” for short) [4] was 100%, the “Herbicidal activity with respect to [%] POLCO” value (from here on “Herbicidal activity … [%] POLCO”) [5] was 100% and the “Herbicidal activity with respect to [%] SETVI” value (from here on “Herbicidal activity … [%] SETVI”) (SETVI: Setaria viridis) was 100%. For the same compound, the “Herbicidal activity with respect to [%] STEME” value (from here on “Herbicidal activity … [%] STEME”) (STEME: Stellaria media [6]) was 100%, the “Herbicidal activity with respect to [%] VERPE” value (“Herbicidal activity … [%] VERPE” for short) (VERPE: Veronica persica [7]) was 100% and the “Herbicidal activity with respect to [%] AMARE” value [8] was 90%. For the same compound, the “Herbicidal activity … [%] STEME” value (STEME: Stellaria media [9]) was 90%, the “Herbicidal activity … [%] VERPE” value (VERPE: Veronica persica [10]) was 90% and the “Herbicidal activity with respect to [%] VIOTR” value (“Herbicidal activity … [%] VIOTR” for short) (VIOTR: Viola tricolor) was 80%.

For `N#Cc1nnc(N[C@@H]2CCCc3ccccc32)nc1N` [Example 1.37], the “Herbicidal activity … [%] ALOMY” value [1] was 100%, the “Herbicidal activity … [%] ECHCG” value [2] was 100% and the “Herbicidal activity … [%] LOLMU” value [3] was 100%. For the same compound, the “Herbicidal activity … [%] MATIN” value [4] was 100%, the “Herbicidal activity … [%] POLCO” value [5] was 100% and the “Herbicidal activity … [%] SETVI” value (SETVI: Setaria viridis) was 100%. For the same compound, the “Herbicidal activity … [%] STEME” value (STEME: Stellaria media [6]) was 100%, the “Herbicidal activity … [%] VERPE” value (VERPE: Veronica persica [7]) was 100% and the “Herbicidal activity … [%] STEME” value (STEME: Stellaria media [9]) was 100%. For the same compound, the “Herbicidal activity … [%] VERPE” value (VERPE: Veronica persica [10]) was 100%.

In the case of `CNC(=O)c1nnc(N[C@H]2c3cc(C)ccc3C[C@@H]2C)nc1N` [Example 1.41], the “Herbicidal activity … [%] ALOMY” value [1] is reported as 100%, the “Herbicidal activity … [%] ECHCG” value [2] is reported as 100% and the “Herbicidal activity … [%] LOLMU” value [3] is reported as 100%. For the same compound, the “Herbicidal activity … [%] MATIN” value [4] was 100%, the “Herbicidal activity … [%] POLCO” value [5] was 100% and the “Herbicidal activity … [%] SETVI” value (SETVI: Setaria viridis) was 100%. For the same compound, the “Herbicidal activity … [%] STEME” value (STEME: Stellaria media [6]) was 100%, the “Herbicidal activity … [%] VERPE” value (VERPE: Veronica persica [7]) was 100% and the “Herbicidal activity with respect to [%] AMARE” value [8] was 80%. For the same compound, the “Herbicidal activity … [%] VERPE” value (VERPE: Veronica persica [10]) was 100% and the “Herbicidal activity … [%] VIOTR” value (VIOTR: Viola tricolor) was 80%.

In the case of `C[S+]([O-])c1nnc(N[C@@H]2CCCc3ccccc32)nc1N` (stereo partly shown) [Example 1.65], the “Herbicidal activity with respect to [%] ABUTH” value [11] is reported as 90%, the “Herbicidal activity … [%] ECHCG” value [2] is reported as 100% and the “Herbicidal activity … [%] LOLMU” value [3] is reported as 100%. The “Herbicidal activity … [%] MATIN” value [4] was 100%, the “Herbicidal activity … [%] POLCO” value [5] was 100% and the “Herbicidal activity … [%] SETVI” value (SETVI: Setaria viridis) was 100%. The “Herbicidal activity … [%] STEME” value (STEME: Stellaria media [6]) was 100%, the “Herbicidal activity … [%] VERPE” value (VERPE: Veronica persica [7]) was 100% and the “Herbicidal activity … [%] STEME” value (STEME: Stellaria media [9]) was 100%. For the same compound, the “Herbicidal activity … [%] VERPE” value (VERPE: Veronica persica [10]) was 80% and the “Herbicidal activity … [%] VIOTR” value (VIOTR: Viola tricolor) was 80%.

With `Cc1ccc2c(c1)[C@H](Nc1nnc(C(=O)N(C)C)c(N)n1)CC2` [Example 1.77] the “Herbicidal activity with respect to [%] ABUTH” value [11] was 90%, the “Herbicidal activity … [%] ALOMY” value [1] was 100% and the “Herbicidal activity … [%] ECHCG” value [2] was 100%. For the same compound, the “Herbicidal activity … [%] MATIN” value [4] was 100%, the “Herbicidal activity … [%] POLCO” value [5] was 100% and the “Herbicidal activity … [%] SETVI” value (SETVI: Setaria viridis) was 100%. For the same compound, the “Herbicidal activity … [%] STEME” value (STEME: Stellaria media [9]) was 100% and the “Herbicidal activity … [%] VIOTR” value (VIOTR: Viola tricolor) was 90%.
